# Results taken from patent US20040023945A1, “CYCLIC AMP-SPECIFIC PHOSPHODIESTERASE INHIBITORS” (ICOS Corporation, priority 1999, published 2004).
# Like-named read-outs stand apart in the source and are kept apart here.
# How the values were obtained:
# recombinant human PDE4 [1] = conditions: background, prior art; read-out: reported IC50 with respect to recombinant human PDE4; cited from earlier work
# Balb/c mice = experiment: Mouse locomotor activity assay (decrease in spontaneous mobility); conditions: in vivo, ip
# Method: (§1) The purpose of this study was to determine the efficacy of PDE4 inhibitors in vivo in an LPS mouse model together with a determination with respect to central nervous system (CNS) side-effects manifested by a decrease in spontaneous mobility.
# (§2) The test animals were female Balb/c mice, having an average weight of about 20 g. The PDE4 inhibitors, formulated in 30% Cremophor® EL, were administered via intraperitoneal (i.p.) injections at doses of 0.1, 1.0, 10.0, and 100 mg/kg. Individual dose volumes (about 150 μL) were adjusted based on the body weights measured. One hour later, 5 mg/kg LPS in a final volume of 200 μL was injected via the tail vein to each animal. Ninety minutes following the LPS treatment, the animals were bled and serum samples were collected before being stored at −70° C. until assayed.
# (§3) Movement of the X-Y plane, or rearing up on the hind legs, was quantified by counting the number of “light-beam” crosses per unit of time. A decrease in the number of activity events is directly proportional to the mobility or immobilization of the animal. The quantitative scoring correlated well with the subjective measurements described above.
# [2] = test system: human peripheral blood lymphocytes; experiment: Lipopolysaccharide-stimulated TNFα release from human peripheral blood lymphocytes; format: cell-based; conditions: Homo sapiens, Lymphocyte
# Method: The compounds of structural formula (II) also were tested for an ability to reduce TNFα secretion in human peripheral blood lymphocytes. The ability to reduce TNFα secretion is related to the EC50 values (i.e., the effective concentration of the compound capable of inhibiting 50% of the total TNFα).
# To assess the ability of a compound to reduce TNFα secretion in human peripheral blood lymphocytes (PBL), the following tests were performed.
# Heparinized blood (approximately 30 mL) drawn from human volunteers was mixed 1:1 with Dulbecco's modified phosphate-buffered saline. This mixture was mixed 1:1 with HISTOPAQUE® and centrifuged at 1,500 rpm at room temperature without braking in the swinging bucket of a Beckman model TJ6 centrifuge. Erythrocytes were centrifuged to the bottom of the tubes, and serum remained at the surface of the tubes. A layer containing lymphocytes sedimented between the serum and HISTOPAQUE® layers, and was removed by aspiration to a fresh tube. The cells were quantified and adjusted to 3×10^6 cells/mL and a 100 μL aliquot is placed into the wells of a 96 well plate. Test compounds and RPMI media (Gibco/BRL Life Sciences) are added to each of the wells 15 minutes prior to addition of bacterial LPS ([…]). The mixture was allowed to incubate for 20 hours at 37° C. in a humidified chamber. The cells then were separated by centrifuging at 800 rpm for 5 minutes at room temperature. An aliquot of 180 μL of supernatant was transferred to a new plate for determination of TNFα concentration. TNFα protein in the cell supernatant fluids was measured using a commercially available enzyme-linked immunosorbent assay (ELISA) (CYTOSCREEN® Immunoassay Kit from Biosource International).
# The cell-based assay provided the following results for various pyrrolidine compounds of the present invention. The EC50 values (i.e., effective concentration of the compound capable of inhibiting 50% of the total TNFα) illustrate the ability of the present compounds to inhibit LPS-stimulated TNFα release from human PBL.
# human recombinant PDE4B = target: T1, human recombinant PDE4B (Homo sapiens, UniProt Q07343); experiment: Inhibition of human recombinant PDE4B; format: biochemical
# T1 construct: made in house; host or cells: Saccharomyces cerevisiae strain YI23 harboring HDUN2.32
# [3] = test system: serum TNFα levels in LPS-injected mice; experiment: Inhibition of serum TNFα levels in LPS-injected mice (Mouse/TNFα ED50); format: in vivo; conditions: Mus musculus
# Method: In order to assess the ability of a compound to reduce serum TNFα levels in mammals, the following protocol was employed. […] Accordingly, in vivo efficacy of a PDE4 reducing compound was shown by dosing with compound and measuring reduction of serum TNFα levels in LPS-injected mice. Female C3H mice, 20-25 gm body weight, were fasted overnight and dosed intraperitoneally with test compound in appropriate vehicle 60 minutes before LPS injection. Five μg of LPS was then injected intraperitoneally into the mice. Ninety minutes after LPS injection, mice were bled from the heart. Blood was allowed to clot overnight at 4° C. Samples were centrifuged for 10 minutes in a microcentrifuge and the serum removed and stored at −20° C. until analysis. Serum levels of TNFα were subsequently measured using a commercially available ELISA kit (Genzyme) following the protocol enclosed in the kit. The percent of inhibition of serum TNFα levels caused by the compound was determined relative to serum TNFα levels in control mice receiving vehicle alone. […]
# [4] = Mouse locomotor activity assay (decrease in spontaneous mobility); conditions: female, Balb/c, in vivo, intraperitoneal, read-out: Mouse Inhibition of Spontaneous Mobility ED50
# Method: as §1, §2, §3
# PDE7 = target: T2, PDE7 (Homo sapiens, UniProt Q13946); experiment: Inhibition of PDE7; format: biochemical
# T2 construct: made in house; host or cells: Saccharomyces cerevisiae BJ2-54
# ferret = experiment: Emetic modeling in the ferret following oral and intravenous dosing; format: in vivo, Mustela putorius furo
# Method: This study was conducted to investigate the emetogenic properties of PDE4 inhibitors in vivo. The ferret previously has been established as a valuable tool for assessing emesis following exposure to test compounds. […] Therefore, lack of and/or decrease in emetic potential of test compounds in ferrets predicts a favorable nonemetic effect in humans. Emesis is a complex physiological response to noxious agents that can be intiated peripherally or centrally.
# The test animals were adult, castrated, and descented male ferrets (species=Mustela putorius furo, Strain=Sable) ranging in weight from about 1 to 1.5 kg. The tests were performed in quadruplicate on animals that were naive to PDE4 inhibitors. The PDE4 inhibitors were formulated in 10% Polyoxyl-35 castor oil (CREMOPHOR® EL, available from BASF Corporation, Parsippany, N.J.) in phosphate buffered saline (PBS), and were administered via i.v. injections into an indwelling catheter surgically positioned in the right external jugular vein at a rate of 0.66 mL per kg body weight. PDE4 inhibitors for oral consumption were formulated in 30% CREMOPHOR® EL in PBS, and administered by intubating animals with a 16-gauge feeding needle into the stomach. The animals received the PDE4 inhibitors in a volume of 1.33 mL per kg body weight.
# All animals were fasted for 8 to 12 hours prior to administration of PDE4 inhibitors. Following administration of a PDE4 inhibitor, emetic and behavioral responses were quantified for three hours post dosing. The total number of emetic responses and vomiting episodes were quantified during the observation interval. In addition, latency time to first emetic episode, duration of emesis episodes, and gross behavioral changes including ataxia, profuse and viscous salivation, mouth clawing, hyperventilation, backward walking, flattened body posture, hyperactivity, lip licking, and general appearance were recorded.
# For comparative purposes, the emetogenic effect of Samples 66 and 69 were tested intravenously at 1.0, 2.5, 5.0, and 10 mg/kg and orally at 2.5, 10, 17, and 25 mg/kg.
# PDE5 = target: T3, PDE5 (Homo sapiens, UniProt O76074); experiment: Inhibition of PDE5; format: biochemical
# T3 construct: made in house; host or cells: Saccharomyces cerevisiae BJ2-54
# recombinant human PDE4 [5] = experiment: Inhibition of recombinant human PDE4 (cAMP hydrolysis); conditions: read-out: PDE4 IC50
# Method: The compounds of structural formula (II) were tested for an ability to inhibit PDE4. […] The IC, value for compounds of structural formula (II) were determined using recombinant human PDE4.
# Phosphodiesterase activity of the preparations was determined as follows. […] In this assay, PDE activity converts [32P]cAMP or [32P]cGMP to the corresponding [32P]5′-AMP or [32P]5′-GMP in proportion to the amount of PDE activity present. The [32P]5′-AMP or [32P]5′-GMP then was quantitatively converted to free [32P]phosphate and unlabeled adenosine or guanosine by the action of snake venom 5′-nucleotidase. […] The assay was performed at 30° C. in a 100 μL reaction mixture containing (final concentrations) 40 mM Tris HCl (pH 8.0), 1 μM ZnSO4, 5 mM MgCl2, and 0.1 mg/mL bovine serum albumin (BSA). […] PDE enzyme was present in quantities that yield<30% total hydrolysis of substrate (linear assay conditions). The assay was initiated by addition of substrate (1 mM [32P]cAMP or cGMP), and the mixture was incubated for 12 minutes. Seventy-five (75) μg of Crotalus atrox venom then was added, and the incubation was continued for 3 minutes (15 minutes total). The reaction was stopped by addition of 200 μL of activated charcoal (25 mg/mL suspension in 0.1 M NaH2PO4, pH 4). After centrifugation (750×g for 3 minutes) to sediment the charcoal, a sample of the supernatant was taken for radioactivity determination in a scintillation counter and the PDE activity was calculated.
# PDE3A = target: T4, PDE3A (Homo sapiens, UniProt Q14432); experiment: Inhibition of PDE3A; format: biochemical
# T4 construct: contained the complete open reading frame of PDE3A; made in house; host or cells: baculovirus-infected Sf9 cells
# mouse = experiment: Subjective assessment of mouse immobility (CNS side effects); format: in vivo; conditions: subjective assessment of mouse immobility, i.p. 1, 10 and 100 mg/kg, 60 minutes
# PDE1A = target: T5, PDE1A (Homo sapiens, UniProt P54750); experiment: Inhibition of PDE1A; format: biochemical
# T5 construct: contained the complete open reading frame of PDE1A3; made in house; host or cells: baculovirus-infected Sf9 cells
# PDE1C = target: T6, PDE1C (Homo sapiens, UniProt Q14123); experiment: Inhibition of PDE1C; format: biochemical
# T6 construct: contained the complete open reading frame of PDE1C3; made in house; host or cells: baculovirus-infected Sf9 cells
# PDE2 = target: T7, PDE2 (Homo sapiens, UniProt O00408); experiment: Inhibition of PDE2; format: biochemical
# T7 construct: made in house; host or cells: Saccharomyces cerevisiae strain YI34
# PDE1B = target: T8, PDE1B (Homo sapiens, UniProt Q01064); experiment: Inhibition of PDE1B; format: biochemical
# T8 construct: made in house; host or cells: Saccharomyces cerevisiae BJ2-54
# [6] = A. Robichaud et al., Neuropharmacology 1999; cited from earlier work
# [7] = read-out: Mouse LPS Challenge ED50
# T1 sequence (Q07343 whole entry): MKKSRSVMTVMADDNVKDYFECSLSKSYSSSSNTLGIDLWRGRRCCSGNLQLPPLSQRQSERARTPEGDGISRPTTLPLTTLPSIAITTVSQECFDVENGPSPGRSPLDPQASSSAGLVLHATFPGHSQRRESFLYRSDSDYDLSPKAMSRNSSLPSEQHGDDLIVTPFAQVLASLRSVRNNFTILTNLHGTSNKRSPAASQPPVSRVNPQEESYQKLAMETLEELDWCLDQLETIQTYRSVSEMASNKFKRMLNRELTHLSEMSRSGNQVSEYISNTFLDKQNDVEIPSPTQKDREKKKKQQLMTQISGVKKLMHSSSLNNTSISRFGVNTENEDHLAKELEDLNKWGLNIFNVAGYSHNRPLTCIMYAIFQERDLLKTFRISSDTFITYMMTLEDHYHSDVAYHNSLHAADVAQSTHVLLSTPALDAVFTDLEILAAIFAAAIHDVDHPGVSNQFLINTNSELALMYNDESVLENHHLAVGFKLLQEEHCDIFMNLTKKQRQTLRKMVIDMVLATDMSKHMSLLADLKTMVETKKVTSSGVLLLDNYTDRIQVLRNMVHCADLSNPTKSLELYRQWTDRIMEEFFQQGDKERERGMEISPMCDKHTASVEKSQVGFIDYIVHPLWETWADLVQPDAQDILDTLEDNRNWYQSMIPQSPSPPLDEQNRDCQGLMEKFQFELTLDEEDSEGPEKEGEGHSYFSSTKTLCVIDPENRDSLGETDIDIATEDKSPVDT
# T7 sequence (O00408 whole entry): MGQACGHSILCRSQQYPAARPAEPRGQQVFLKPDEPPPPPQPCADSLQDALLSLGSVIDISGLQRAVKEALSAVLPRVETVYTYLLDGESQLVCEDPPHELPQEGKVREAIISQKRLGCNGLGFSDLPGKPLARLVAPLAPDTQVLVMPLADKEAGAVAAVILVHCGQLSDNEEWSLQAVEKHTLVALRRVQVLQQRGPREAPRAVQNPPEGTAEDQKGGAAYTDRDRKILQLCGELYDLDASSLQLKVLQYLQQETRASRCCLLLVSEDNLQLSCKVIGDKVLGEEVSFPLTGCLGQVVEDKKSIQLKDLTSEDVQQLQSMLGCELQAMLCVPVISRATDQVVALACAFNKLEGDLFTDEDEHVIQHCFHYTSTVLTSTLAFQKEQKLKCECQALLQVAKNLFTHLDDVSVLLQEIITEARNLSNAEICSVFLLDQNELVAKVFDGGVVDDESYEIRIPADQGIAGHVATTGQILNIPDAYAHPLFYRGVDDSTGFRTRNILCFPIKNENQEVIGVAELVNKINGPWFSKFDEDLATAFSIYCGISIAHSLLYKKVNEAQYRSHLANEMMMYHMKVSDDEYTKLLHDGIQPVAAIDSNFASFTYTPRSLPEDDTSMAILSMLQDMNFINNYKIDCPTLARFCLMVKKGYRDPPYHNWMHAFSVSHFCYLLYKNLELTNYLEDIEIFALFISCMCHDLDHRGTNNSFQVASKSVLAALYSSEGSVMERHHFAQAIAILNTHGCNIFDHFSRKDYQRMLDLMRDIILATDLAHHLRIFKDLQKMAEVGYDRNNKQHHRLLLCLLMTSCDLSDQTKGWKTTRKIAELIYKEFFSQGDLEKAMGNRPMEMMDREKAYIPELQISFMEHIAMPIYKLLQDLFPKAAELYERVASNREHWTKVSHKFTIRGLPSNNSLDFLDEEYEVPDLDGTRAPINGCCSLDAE
# T4 sequence (Q14432 whole entry): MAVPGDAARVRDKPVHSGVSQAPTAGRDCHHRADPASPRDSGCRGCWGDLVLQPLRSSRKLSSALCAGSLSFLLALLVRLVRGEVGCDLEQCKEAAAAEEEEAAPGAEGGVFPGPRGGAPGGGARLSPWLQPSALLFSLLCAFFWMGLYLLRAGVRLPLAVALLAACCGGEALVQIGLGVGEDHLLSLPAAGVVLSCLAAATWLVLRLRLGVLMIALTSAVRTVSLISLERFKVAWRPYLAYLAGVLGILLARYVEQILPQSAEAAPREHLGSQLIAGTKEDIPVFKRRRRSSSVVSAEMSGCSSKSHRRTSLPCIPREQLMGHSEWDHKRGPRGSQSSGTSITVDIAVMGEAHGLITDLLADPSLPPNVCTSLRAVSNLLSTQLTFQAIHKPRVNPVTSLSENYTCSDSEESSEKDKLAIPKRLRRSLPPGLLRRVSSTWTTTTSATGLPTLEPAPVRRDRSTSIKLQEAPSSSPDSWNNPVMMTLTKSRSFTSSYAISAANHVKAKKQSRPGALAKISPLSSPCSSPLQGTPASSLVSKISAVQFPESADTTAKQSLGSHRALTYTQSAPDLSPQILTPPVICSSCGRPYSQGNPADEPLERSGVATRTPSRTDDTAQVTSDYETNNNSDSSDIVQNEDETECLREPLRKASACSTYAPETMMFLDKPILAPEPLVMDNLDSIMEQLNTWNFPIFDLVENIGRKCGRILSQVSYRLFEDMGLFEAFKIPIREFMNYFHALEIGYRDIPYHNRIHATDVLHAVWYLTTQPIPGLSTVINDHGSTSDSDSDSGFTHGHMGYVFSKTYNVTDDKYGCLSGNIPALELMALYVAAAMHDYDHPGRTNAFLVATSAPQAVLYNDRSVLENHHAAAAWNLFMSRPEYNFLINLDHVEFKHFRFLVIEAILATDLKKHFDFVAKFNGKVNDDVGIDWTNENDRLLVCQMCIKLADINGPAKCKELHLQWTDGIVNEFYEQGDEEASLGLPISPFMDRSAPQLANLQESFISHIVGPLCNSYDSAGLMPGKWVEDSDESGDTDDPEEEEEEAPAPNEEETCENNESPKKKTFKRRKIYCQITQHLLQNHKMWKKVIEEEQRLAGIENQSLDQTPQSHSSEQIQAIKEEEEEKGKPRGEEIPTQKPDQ
# T2 sequence (Q13946 whole entry): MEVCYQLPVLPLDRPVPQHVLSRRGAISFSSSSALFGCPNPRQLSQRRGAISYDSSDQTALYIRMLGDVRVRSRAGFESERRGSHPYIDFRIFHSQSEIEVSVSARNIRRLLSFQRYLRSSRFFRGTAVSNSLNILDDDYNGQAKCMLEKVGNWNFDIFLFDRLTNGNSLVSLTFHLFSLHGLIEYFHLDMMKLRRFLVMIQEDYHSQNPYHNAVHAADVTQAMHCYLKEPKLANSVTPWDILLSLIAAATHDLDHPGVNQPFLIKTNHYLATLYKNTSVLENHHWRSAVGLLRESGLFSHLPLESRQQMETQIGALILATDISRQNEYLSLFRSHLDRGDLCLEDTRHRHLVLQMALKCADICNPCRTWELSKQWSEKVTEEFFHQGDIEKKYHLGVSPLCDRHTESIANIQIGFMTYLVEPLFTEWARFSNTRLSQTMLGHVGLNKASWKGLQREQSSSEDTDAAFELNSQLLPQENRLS
smiles,measurement,setting,value
COC(=O)N1CC(c2ccc(OC)c(OC3CCCC3)c2)C(C)(C(C)=O)C1 (centres unmarked) [formula (I)],IC50,recombinant human PDE4 [1],~2 nM
"COc1ccc([C@@H]2CN(C(=O)CNC(=O)OCc3ccccc3)C[C@@]2(C)[C@@H](C)O)cc1OC1Cc2ccccc2C1 [Example 29, N-(2-[3-((1R)-1-Hydroxyethyl)(3S,4S)-4-(3-indan-2-yloxy-4-methoxyphenyl)-3-methylpyrrolidinyl]-2-oxoethyl}(phenylmethoxy)carboxamide]","ED50, effective dose that decreases spontaneous mobility 50% of control",Balb/c mice,9.8 mg/kg
"COc1ccc([C@@H]2CN(C(=O)[C@@H](O)Cc3ccccc3)C[C@@]2(C)[C@@H](C)O)cc1OCC#Cc1ccccc1 [Example 268, (S)-2-Hydroxy-1-{(3S,4S)-3-((R)-1-hydroxyethyl)-4-[4-methoxy-3-(3-phenylprop-2-ynyloxy)phenyl]-3-methylpyrrolidin-1-yl}-3-phenylpropan-1-one]",EC50,[2]; read-out: Cell based EC50,6 nM
same,IC50,human recombinant PDE4B; read-out: PDE4B IC50,15 nM
same,ED50,[3]; [7],5 mg/kg
same,ED50,[4],100 mg/kg
"COc1ccc(C2CNC(=O)C2)cc1OC1CCCC1 (centres unmarked) [Rolipram, rolipram]",IC50,recombinant human PDE4 [1],~200 nM
COC(=O)N1C[C@@H](c2ccc(OC)c(OC3CCCC3)c2)[C@](C)([C@@H](C)O)C1 [(C)],IC50,PDE7,36000 nM
same,EC50,"[2]; LPS-stimulated TNFα release from human PBL, read-out: PBL/TNFα EC50",71.6 nM
same,IC50,human recombinant PDE4B; read-out: IC50 vs. human recombinant PDE4B,15 nM
same,Number of Emetic Events: Retches,ferret; intravenous 1.0 mg/kg,0
same,Number of Emetic Events: Total,ferret; intravenous 1.0 mg/kg,0
same,Number of Emetic Events: Vomits,ferret; intravenous 1.0 mg/kg,0
same,Responders,ferret; intravenous 1.0 mg/kg,0/4
same,Number of Emetic Events: Retches,ferret; intravenous 2.5 mg/kg,0
same,Number of Emetic Events: Total,ferret; intravenous 2.5 mg/kg,0
same,Number of Emetic Events: Vomits,ferret; intravenous 2.5 mg/kg,0
same,Responders,ferret; intravenous 2.5 mg/kg,0/4
same,Number of Emetic Events: Retches,ferret; intravenous 5.0 mg/kg,10
same,Number of Emetic Events: Total,ferret; intravenous 5.0 mg/kg,10
same,Number of Emetic Events: Vomits,ferret; intravenous 5.0 mg/kg,0
same,Responders,ferret; intravenous 5.0 mg/kg,2/4
same,Number of Emetic Events: Retches,ferret; intravenous 10.0 mg/kg,27
same,Number of Emetic Events: Total,ferret; intravenous 10.0 mg/kg,31
same,Number of Emetic Events: Vomits,ferret; intravenous 10.0 mg/kg,4
same,Responders,ferret; intravenous 10.0 mg/kg,4/4
same,distress after intravenous dosing,ferret; intravenous 10 mg/kg body weight,none displayed the distress
same,Number of Emetic Events: Retches,ferret; oral 2.5 mg/kg,0
same,Number of Emetic Events: Total,ferret; oral 2.5 mg/kg,0
same,Number of Emetic Events: Vomits,ferret; oral 2.5 mg/kg,0
same,Responders,ferret; oral 2.5 mg/kg,0/4
same,Number of Emetic Events: Retches,ferret; oral 10.0 mg/kg,14
same,Number of Emetic Events: Total,ferret; oral 10.0 mg/kg,22
same,Number of Emetic Events: Vomits,ferret; oral 10.0 mg/kg,8
same,Responders,ferret; oral 10.0 mg/kg,2/4
same,Number of Emetic Events: Retches,ferret; oral 17.0 mg/kg,17
same,Number of Emetic Events: Total,ferret; oral 17.0 mg/kg,18
same,Number of Emetic Events: Vomits,ferret; oral 17.0 mg/kg,1
same,Responders,ferret; oral 17.0 mg/kg,2/3
same,Number of Emetic Events: Retches,ferret; oral 25.0 mg/kg,61
same,Number of Emetic Events: Total,ferret; oral 25.0 mg/kg,73
same,Number of Emetic Events: Vomits,ferret; oral 25.0 mg/kg,12
same,Responders,ferret; oral 25.0 mg/kg,4/4
same,IC50,PDE5,270000 nM
same,ED50,"[3]; stereoisomer comparison table, read-out: Mouse/TNFα ED50",5 mg/kg
same,IC50,recombinant human PDE4 [5]; human recombinant PDE4,14 nM
same,IC50,recombinant human PDE4 [5]; stereoisomer comparison table,14 nM
same,IC50,PDE3A,40000 nM
same,CNS Side Effects,mouse,No effect
same,IC50,PDE1A,80000 nM
same,IC50,PDE1C,12000 nM
same,IC50,PDE2,450000 nM
same,IC50,PDE1B,100000 nM
"COc1ccc([C@@H]2CN(C(=O)C(O)c3ccccc3)C[C@@]2(C)[C@@H](C)O)cc1OCC1CC1 (stereo partly drawn) [Example 195, 1-{3-((1R)-1-Hydroxyethyl)(3S,4S)-4-[3-(cyclopropyl-methoxy)-4-methoxyphenyl]-3-methylpyrrolidinyl}-2-hydroxy-2-phenylethan-1-one]",EC50,[2]; read-out: Cell based EC50,30 nM
same,IC50,human recombinant PDE4B; read-out: PDE4B IC50,7 nM
same,ED50,[3]; [7],9 mg/kg
same,ED50,[4],100 mg/kg
"COc1ccc([C@@H]2CN(C(=O)[C@@H](O)CO)C[C@@]2(C)[C@@H](C)O)cc1OCC#Cc1ccccc1 [Example 264, (S)-2,3-Dihydroxy-1-{(3S,4S)-3-((R)-1-hydroxyethyl)-4-[4-methoxy-3-(3-phenylprop-2-ynyloxy)phenyl]-3-methylpyrrolidin-1-yl}propan-1-one]",EC50,[2]; read-out: Cell based EC50,10 nM
same,IC50,human recombinant PDE4B; read-out: PDE4B IC50,3 nM
same,ED50,[3]; [7],1 mg/kg
same,ED50,[4],< 100 mg/kg
COc1ccc([C@@H]2CNC(=O)C2)cc1OC1CCCC1 [R-rolipram],emetic potency relative to the (+)-enantiomer (S-rolipram),[6],about ten-fold
